Reference: paper PMC11837542, “Two NADPH-dependent 2-ketogluconate reductases involved in 2-ketogluconate assimilation in Gluconobacter sp. strain CHM43” (Applied and Environmental Microbiology, 2025)

Key:
[1] = test system: T1, GLF_1777 (2KGR); experiment: NADH oxidation at […] nm, soluble cell extract of overexpressing strain; assay type: biochemical, Gluconobacter sp. CHM43; conditions: co-substrate 2KG; standard assay 10 mM K-2-ketogluconate, 50 mM Na-acetate pH 6.0, 25°C
T1 construct: untagged, full-length gene on plasmid pSKR57 in Gluconobacter sp; CHM43 delta-GLF_0478 (strain SKR104)

[2] = test system: T1, GLF_1777 (2KGR); experiment: NADPH oxidation at […] nm, soluble cell extract of overexpressing strain; assay type: biochemical, Gluconobacter sp. CHM43; conditions: co-substrate 2KG; standard assay 10 mM K-2-ketogluconate, 50 mM Na-acetate pH 6.0, 25°C

Compound | Km [1] [µM] | Km [2] [µM]
NC(=O)C1=CN([C@@H]2O[C@H](COP(=O)(O)OP(=O)(O)OC[C@H]3O[C@@H](n4cnc5c(N)ncnc54)[C@H](O)[C@@H]3O)[C@@H](O)[C@H]2O)C=CC1 [NADH] | 100 ± 9 | 
NC(=O)C1=CN([C@@H]2O[C@H](COP(=O)(O)OP(=O)(O)OC[C@H]3O[C@@H](n4cnc5c(N)ncnc54)[C@H](OP(=O)(O)O)[C@@H]3O)[C@@H](O)[C@H]2O)C=CC1 [NADPH] |  | 3 ± 0.4
